Reference: publication PMC12030627, “Radioiodinated Bicyclic RGD Peptide Derivatives for Enhanced Tumor Accumulation” (Pharmaceuticals, 2025)
Where two headings read alike, the source gives them in different places. Starred links: 1 amine or outer side, 2 acyl side, 3 side chain; linkers in the order of their positions; H or OH if unused. Positions of bridges follow the written chain, without caps; N, C: chain ends. Non-standard residues stand in square brackets, D forms with d. Residues, ends and D or L forms follow the SMILES beside them. *: point of attachment. TBMB = c1c(C[*:1])cc(C[*:3])cc1C[*:2]; Palmitoyl = CCCCCCCCCCCCCCCC(=O)*; Benzoyl(3-I) = O=C(c1cccc(I)c1)*; 4Abz = Nc1ccc(C(=O)O)cc1

Assay: Biodistribution in U-87 MG tumor-bearing mice
Format: in vivo, BALB/c nu-nu mice
Conditions: male, BALB/c nu-nu, mouse, iv, 37 kBq, total radioactivity; for tissue uptake at 5 min: 5 min after i.v. administration; for tissue uptake at 5 min / tissue uptake at 0.5 h / tissue uptake at 1 h / tissue uptake at 2 h / tissue uptake at 6 h / tissue uptake at 12 h / tissue uptake at 24 h: U-87 MG-bearing mice, mean ± SD, n = 3; for tissue uptake at 0.5 h: 30 min after i.v. administration; for tissue uptake at 1 h: 1 h after i.v. administration; for tissue uptake at 2 h: 2 h after i.v. administration; for tissue uptake at 6 h: 6 h after i.v. administration; for tissue uptake at 12 h: 12 h after i.v. administration; for tissue uptake at 24 h: 24 h after i.v. administration
Protocol: Animal experiments were performed in compliance with institutional animal care regulations, with the study protocol approved by the Experimental Animal Committee of Osaka Medical and Pharmaceutical University (Approval Numbers: 21–76, 22–76, and 23–76). Four-week-old male BALB/c nu-nu mice (Japan SLC, Shizuoka, Japan) were housed under a 12 h light/12 h dark cycle with free access to food and water. Tumor-bearing mice were established by suspending U-87 MG cells (2 × 10^6 cells/mouse) in PBS(–) and subcutaneously injecting 100 μL of the suspension into the right hind leg. For co-implantation models, A549 cells (2 × 10^6 cells/mouse) were suspended in PBS(–) and inoculated (100 μL) into the left hind leg of the same mice already inoculated with U-87 MG cells. Mice with tumor size approximately 10 mm in diameter, 4–5 weeks after inoculation, were used for biodistribution studies. Animals in which either tumor was not viable were excluded from the experiment.
U-87 MG-bearing mice (n = 42, 8–9 weeks old; 22–27 g) were randomly assigned into groups and administered [^125I]bcRGDpal or [^125I]bcRGDiba via intravenous injection (37 kBq in 100 μL of PBS containing 0.1% Tween 80 (PBS-T80)). At 5 min, 30 min, 1 h, 2 h, 6 h, 12 h, or 24 h post-injection, the mice were euthanized (n = 3 per time point). The heart, kidneys, liver, brain, pancreas, spleen, lung, small intestine, large intestine, muscle, skin, stomach, bone, and tumors were excised. Each organ’s weight and radioactivity were measured by a NaI well-type scintillation counter, and the % ID/g was calculated. To investigate the correlation between integrin expression and radioactivity accumulation, biodistribution at 2 h after administration of [^125I]bcRGDpal or [^125I]bcRGDiba was assessed in A549 and U-87 MG co-implantation mice (n = 5) using the same procedure. Additionally, co-implantation mice were injected with [^125I]bcRGDdimer (37 kBq/100 μL PBS-T80) and euthanized at 30 min, 2 h, and 4 h post-injection (n = 4 per time point), and % ID/g values were calculated as described above. The minimum sample size needed for the biodistribution study in U-87 MG-bearing mice was calculated using G Power software version 3.1.9.7. The calculation was based on a two-tailed test, with an effect size of 3.9, a significance level (α) of 0.05, and a statistical power (1 − β) of 0.8. […] The minimum required sample size for the biodistribution study in A549 and U-87 MG co-implantation mice was also calculated to be four animals per group (effect size = 2.5, α = 0.05, 1 − β = 0.8). To guarantee objective results, the experiment was carried out in a blinded manner. Specifically, drug administration and radioactivity measurements were conducted by different investigators to eliminate potential bias.

[1] = U-87 MG tumor, read-out: Radioactivity in U-87 MG tumor
[2] = blood, read-out: Radioactivity in blood
[3] = bone, read-out: Radioactivity in bone
[4] = brain, read-out: Radioactivity in brain
[5] = heart, read-out: Radioactivity in heart
[6] = kidneys, read-out: Radioactivity in kidneys
[7] = large intestine, read-out: Radioactivity in large intestine
[8] = liver, read-out: Radioactivity in liver

Work on CCCCCCCCCCCCCCCC(=O)N[C@@H](CCCCNC(=O)c1cccc(I)c1)C(=O)N1CCC[C@H]1C(=O)N1CCC[C@H]1C(=O)N1CCC[C@H]1C(=O)N[C@@H](CO)C(=O)NCC(=O)Nc1ccc(C(=O)N[C@@H](CO)C(=O)NCC(=O)N[C@H]2CSCc3cc4cc(c3)CSC[C@@H](NC(=O)[C@H](CCC(N)=O)NC(=O)[C@@H]3CCCN3C(=O)[C@H](Cc3c[nH]cn3)NC2=O)C(=O)N[C@@H](CCCNC(=N)N)C(=O)NCC(=O)N[C@@H](CC(=O)O)C(=O)N[C@@H](C(N)=O)CSC4)cc1 [[^125I]bcRGDpal] (Palmitoyl-K(Benzoyl(3-I))PPPSG[4Abz]SGCHPQ[dC]RGD[dC]-NH2; linker 10-14-18 via TBMB) yielded a tissue uptake at 5 min [1] of 1.4 ± 0.2 %ID/g, a tissue uptake at 0.5 h [1] of 3.4 ± 0.5 %ID/g and a tissue uptake at 1 h [1] of 4 ± 0.5 %ID/g. The tissue uptake at 2 h [1] was 3.9 ± 0.2 %ID/g, the tissue uptake at 6 h [1] was 2.1 ± 0.4 %ID/g and the tissue uptake at 12 h [1] was 0.9 ± 0.1 %ID/g. For the same compound, the tissue uptake at 24 h [1] was 0.3 ± 0.1 %ID/g, the tissue to tissue ratio (U-87 MG tumor/blood, all time points (5 min to 24 h)) was < 1 and the tissue uptake at 5 min [2] was 15.6 ± 1 %ID/g. For the same compound, the tissue uptake at 0.5 h [2] was 12.2 ± 0.8 %ID/g, the tissue uptake at 1 h [2] was 9.9 ± 0.5 %ID/g and the tissue uptake at 2 h [2] was 7.8 ± 0.4 %ID/g. It also gave a tissue uptake at 6 h [2] of 4.5 ± 0.4 %ID/g, a tissue uptake at 12 h [2] of 2 ± 0.3 %ID/g and a tissue uptake at 24 h [2] of 0.5 %ID/g. It also gave a tissue uptake at 5 min [3] of 1.4 ± 0.1 %ID/g, a tissue uptake at 0.5 h [3] of 1.7 ± 0.6 %ID/g and a tissue uptake at 1 h [3] of 1.1 ± 0.3 %ID/g. For the same compound, the tissue uptake at 2 h [3] was 1.3 ± 0.4 %ID/g, the tissue uptake at 6 h [3] was 0.7 ± 0.1 %ID/g and the tissue uptake at 12 h [3] was 0.4 %ID/g. The tissue uptake at 24 h [3] was 0.1 ± 0.1 %ID/g, the tissue uptake at 5 min [4] was 0.5 ± 0.1 %ID/g and the tissue uptake at 0.5 h [4] was 0.3 ± 0.1 %ID/g. It also gave a tissue uptake at 1 h [4] of 0.3 %ID/g, a tissue uptake at 2 h [4] of 0.2 %ID/g and a tissue uptake at 6 h [4] of 0.1 %ID/g. The tissue uptake at 12 h [4] was 0.1 %ID/g, the tissue uptake at 5 min [5] was 6.6 ± 0.1 %ID/g and the tissue uptake at 0.5 h [5] was 4.7 ± 0.4 %ID/g. The tissue uptake at 1 h [5] was 4.3 ± 0.3 %ID/g, the tissue uptake at 2 h [5] was 3.1 ± 0.2 %ID/g and the tissue uptake at 6 h [5] was 1.7 %ID/g. The tissue uptake at 12 h [5] was 0.8 ± 0.1 %ID/g, the tissue uptake at 24 h [5] was 0.2 %ID/g and the tissue uptake at 5 min [6] was 9 ± 0.2 %ID/g. It also gave a tissue uptake at 0.5 h [6] of 8.3 ± 0.9 %ID/g, a tissue uptake at 1 h [6] of 7.7 ± 0.2 %ID/g and a tissue uptake at 2 h [6] of 6.7 ± 0.6 %ID/g. For the same compound, the tissue uptake at 6 h [6] was 4.2 ± 0.6 %ID/g, the tissue uptake at 12 h [6] was 1.7 ± 0.2 %ID/g and the tissue uptake at 24 h [6] was 0.4 %ID/g. The tissue uptake at 5 min [7] was 0.9 ± 0.1 %ID/g, the tissue uptake at 0.5 h [7] was 1.4 ± 0.2 %ID/g and the tissue uptake at 1 h [7] was 1.4 ± 0.1 %ID/g. The tissue uptake at 2 h [7] was 6.9 ± 1.1 %ID/g, the tissue uptake at 6 h [7] was 11.8 ± 2 %ID/g and the tissue uptake at 12 h [7] was 7.5 ± 0.8 %ID/g. For the same compound, the tissue uptake at 24 h [7] was 2.3 ± 1.1 %ID/g, the tissue uptake at 5 min [8] was 17.6 ± 0.9 %ID/g and the tissue uptake at 0.5 h [8] was 19 ± 2.1 %ID/g.
